From paper PMC12269308, “Martinostat as a novel HDAC inhibitor to overcome tyrosine kinase inhibitor resistance in chronic myeloid leukemia” (Clinical Epigenetics, 2025) come the findings set out here.

Conditions in all cases: read-out: IC50 (nM)^1 / Martinostat
Experiment [1] deals with T1, HDAC10 (Homo sapiens, UniProt Q969S8).
T1 sequence (Q969S8 1-669): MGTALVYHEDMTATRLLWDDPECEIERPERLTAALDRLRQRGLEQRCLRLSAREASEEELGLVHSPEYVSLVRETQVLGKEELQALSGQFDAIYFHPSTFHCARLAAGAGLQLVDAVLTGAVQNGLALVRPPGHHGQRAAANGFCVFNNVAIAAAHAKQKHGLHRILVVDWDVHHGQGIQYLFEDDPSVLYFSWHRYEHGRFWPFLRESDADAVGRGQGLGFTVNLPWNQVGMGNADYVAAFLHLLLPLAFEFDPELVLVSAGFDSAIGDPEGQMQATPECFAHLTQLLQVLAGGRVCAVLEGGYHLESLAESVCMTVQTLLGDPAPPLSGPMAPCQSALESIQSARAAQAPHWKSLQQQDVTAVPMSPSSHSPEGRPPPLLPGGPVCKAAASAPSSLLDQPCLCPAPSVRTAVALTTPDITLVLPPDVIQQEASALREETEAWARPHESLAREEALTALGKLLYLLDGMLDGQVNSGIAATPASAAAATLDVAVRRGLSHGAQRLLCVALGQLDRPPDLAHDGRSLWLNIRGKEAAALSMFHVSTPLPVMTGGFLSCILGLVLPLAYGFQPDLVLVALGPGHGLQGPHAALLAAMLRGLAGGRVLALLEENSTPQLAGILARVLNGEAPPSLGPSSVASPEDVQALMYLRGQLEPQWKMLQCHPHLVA
Kind of experiment: fluorescence HDAC isoenzyme activity assay. The format is biochemical.

In experiment [2] the target is T2, HDAC6 (Homo sapiens, UniProt Q9UBN7).
T2 sequence (Q9UBN7 1-1215): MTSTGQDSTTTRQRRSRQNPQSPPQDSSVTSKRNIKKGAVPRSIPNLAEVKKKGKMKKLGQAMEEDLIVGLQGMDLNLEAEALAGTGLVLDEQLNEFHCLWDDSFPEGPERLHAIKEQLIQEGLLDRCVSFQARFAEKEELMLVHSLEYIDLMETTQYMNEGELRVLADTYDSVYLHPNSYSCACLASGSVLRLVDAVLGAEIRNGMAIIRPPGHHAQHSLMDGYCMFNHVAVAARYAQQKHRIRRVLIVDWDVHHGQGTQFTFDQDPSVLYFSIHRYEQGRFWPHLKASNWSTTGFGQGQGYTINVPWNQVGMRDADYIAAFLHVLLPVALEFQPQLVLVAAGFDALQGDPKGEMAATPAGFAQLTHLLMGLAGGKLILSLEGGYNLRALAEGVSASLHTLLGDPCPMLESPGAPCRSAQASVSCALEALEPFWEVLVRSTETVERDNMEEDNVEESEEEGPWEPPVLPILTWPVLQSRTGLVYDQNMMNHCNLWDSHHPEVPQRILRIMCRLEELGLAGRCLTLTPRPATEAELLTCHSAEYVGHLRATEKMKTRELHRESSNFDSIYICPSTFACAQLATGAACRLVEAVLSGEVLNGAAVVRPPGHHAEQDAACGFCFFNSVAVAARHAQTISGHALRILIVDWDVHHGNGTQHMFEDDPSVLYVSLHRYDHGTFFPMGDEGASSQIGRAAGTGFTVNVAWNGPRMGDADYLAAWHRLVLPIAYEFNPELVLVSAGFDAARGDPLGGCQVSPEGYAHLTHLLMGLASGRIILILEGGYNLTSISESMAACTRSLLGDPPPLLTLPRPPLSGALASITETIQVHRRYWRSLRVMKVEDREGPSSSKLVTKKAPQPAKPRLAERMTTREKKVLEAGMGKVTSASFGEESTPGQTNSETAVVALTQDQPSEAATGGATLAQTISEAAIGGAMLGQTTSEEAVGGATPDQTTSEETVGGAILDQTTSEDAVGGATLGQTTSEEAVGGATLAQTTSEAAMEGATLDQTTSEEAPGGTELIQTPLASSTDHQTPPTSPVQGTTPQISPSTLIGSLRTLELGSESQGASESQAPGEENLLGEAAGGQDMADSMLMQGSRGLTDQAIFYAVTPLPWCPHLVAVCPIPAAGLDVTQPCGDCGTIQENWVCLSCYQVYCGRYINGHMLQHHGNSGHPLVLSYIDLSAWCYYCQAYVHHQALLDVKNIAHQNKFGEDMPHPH
Kind of experiment: fluorescence HDAC isoenzyme activity assay. The format is biochemical.

The target of experiment [3] is HDAC3 (Homo sapiens, UniProt O15379). Briefly: fluorescence HDAC isoenzyme activity assay. It is filed as biochemical.
Sequence of HDAC3 (O15379 whole entry): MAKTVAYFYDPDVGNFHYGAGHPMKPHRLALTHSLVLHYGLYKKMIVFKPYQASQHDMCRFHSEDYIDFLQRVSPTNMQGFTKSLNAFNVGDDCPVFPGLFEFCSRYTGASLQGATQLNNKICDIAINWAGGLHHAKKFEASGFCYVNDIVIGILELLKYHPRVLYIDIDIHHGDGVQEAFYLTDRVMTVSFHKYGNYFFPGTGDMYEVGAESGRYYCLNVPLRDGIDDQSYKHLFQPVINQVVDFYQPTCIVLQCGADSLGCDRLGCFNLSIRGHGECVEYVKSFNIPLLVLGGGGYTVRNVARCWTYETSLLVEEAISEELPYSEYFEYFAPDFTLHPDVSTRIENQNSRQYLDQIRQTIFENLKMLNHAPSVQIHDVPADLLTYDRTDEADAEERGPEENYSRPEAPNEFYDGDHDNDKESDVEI
For experiment [4], the target named is T3, HDAC11 (Homo sapiens, UniProt Q96DB2).
T3 sequence (Q96DB2 1-347): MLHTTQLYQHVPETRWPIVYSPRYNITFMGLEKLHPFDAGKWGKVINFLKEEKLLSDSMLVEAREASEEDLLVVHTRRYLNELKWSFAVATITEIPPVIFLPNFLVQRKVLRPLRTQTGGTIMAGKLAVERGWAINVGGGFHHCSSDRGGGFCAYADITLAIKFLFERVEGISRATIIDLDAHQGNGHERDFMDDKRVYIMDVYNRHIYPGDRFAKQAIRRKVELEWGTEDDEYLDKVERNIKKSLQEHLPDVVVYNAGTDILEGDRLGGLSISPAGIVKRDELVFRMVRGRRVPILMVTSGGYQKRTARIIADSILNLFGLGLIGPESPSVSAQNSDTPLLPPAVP
Kind of experiment: fluorescence HDAC isoenzyme activity assay. It is filed as biochemical.

In experiment [5] the target is HDAC2 (Homo sapiens, UniProt Q92769). Kind of experiment: fluorescence HDAC isoenzyme activity assay. The format is biochemical.
Sequence of HDAC2 (Q92769 whole entry): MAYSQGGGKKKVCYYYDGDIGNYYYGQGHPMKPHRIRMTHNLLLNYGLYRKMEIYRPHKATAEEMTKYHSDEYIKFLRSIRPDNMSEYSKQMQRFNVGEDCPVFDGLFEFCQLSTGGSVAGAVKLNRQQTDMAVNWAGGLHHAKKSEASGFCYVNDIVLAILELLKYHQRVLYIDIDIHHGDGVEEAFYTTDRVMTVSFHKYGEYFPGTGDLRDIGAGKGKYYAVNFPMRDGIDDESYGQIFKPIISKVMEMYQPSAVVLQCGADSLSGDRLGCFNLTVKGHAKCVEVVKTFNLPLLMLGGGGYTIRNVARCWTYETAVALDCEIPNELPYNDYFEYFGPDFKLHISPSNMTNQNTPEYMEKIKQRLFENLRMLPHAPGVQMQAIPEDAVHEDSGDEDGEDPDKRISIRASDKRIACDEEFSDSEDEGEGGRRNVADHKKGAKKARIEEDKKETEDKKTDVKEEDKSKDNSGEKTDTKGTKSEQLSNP
Experiment [6] addresses HDAC1 (Homo sapiens, UniProt Q13547). Briefly: fluorescence HDAC isoenzyme activity assay. The format is biochemical.
In experiment [7] the target is T4, HDAC8 (Homo sapiens, UniProt Q9BY41).
T4 sequence (Q9BY41 1-377): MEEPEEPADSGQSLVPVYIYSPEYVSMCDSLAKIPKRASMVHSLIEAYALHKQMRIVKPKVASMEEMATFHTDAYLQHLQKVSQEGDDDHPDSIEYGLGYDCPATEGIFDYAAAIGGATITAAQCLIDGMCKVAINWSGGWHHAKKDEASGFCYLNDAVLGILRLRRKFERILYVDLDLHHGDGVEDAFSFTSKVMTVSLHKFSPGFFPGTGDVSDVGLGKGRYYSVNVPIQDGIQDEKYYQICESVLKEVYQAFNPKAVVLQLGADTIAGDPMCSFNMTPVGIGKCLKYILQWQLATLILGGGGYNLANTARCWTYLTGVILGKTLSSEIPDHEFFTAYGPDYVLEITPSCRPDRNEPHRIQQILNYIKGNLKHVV
Briefly: biochemical. Set-up: Fluorescence HDAC isoenzyme deacetylase activity assay, excitation 360 nm, emission 460 nm. The procedure: HDAC activity assays were performed as previously reported. The fluorescence signal was measured using a SpectraMax i3x fluorimeter (Molecular Devices Korea) with SoftMax Pro software at an excitation wavelength of 360 nm and an emission wavelength of 460 nm. […] We conducted total HDAC activity assays to assess the effect of martinostat on the deacetylase activity in vitro.

Sequence of HDAC1 (Q13547 whole entry): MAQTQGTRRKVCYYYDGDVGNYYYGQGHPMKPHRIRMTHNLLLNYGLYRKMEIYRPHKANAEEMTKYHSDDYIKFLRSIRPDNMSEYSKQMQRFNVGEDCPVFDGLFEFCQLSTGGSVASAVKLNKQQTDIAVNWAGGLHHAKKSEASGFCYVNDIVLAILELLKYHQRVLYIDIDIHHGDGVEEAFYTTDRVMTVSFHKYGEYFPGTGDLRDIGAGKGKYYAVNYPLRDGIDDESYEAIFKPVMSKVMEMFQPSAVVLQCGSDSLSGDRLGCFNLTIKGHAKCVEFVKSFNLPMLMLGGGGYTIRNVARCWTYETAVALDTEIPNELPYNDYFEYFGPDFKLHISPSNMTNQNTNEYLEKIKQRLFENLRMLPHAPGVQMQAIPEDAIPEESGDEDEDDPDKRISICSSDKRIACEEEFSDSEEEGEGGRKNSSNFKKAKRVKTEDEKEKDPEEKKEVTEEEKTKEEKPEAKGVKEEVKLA

For `CN(Cc1ccc(/C=C/C(=O)NO)cc1)CC12CC3CC(CC(C3)C1)C2` [martinostat], the IC50 in experiment [1] amounted to 72 ± 7 nM; in experiment [2], 70 ± 7 nM; in experiment [3], 79 ± 8 nM; in experiment [4] it was 34 ± 1 nM; in experiment [5], 61 ± 7 nM; in experiment [6] it was 80 ± 3 nM. The IC50 in experiment [7] was 1650 ± 155 nM.
